Results as given in patent US9549965B2, “Pharmaceutical composition for treating a microbial infection” (HELPERBY THERAPEUTICS LIMITED, priority 2010, dated 2017).
Structures can show the parent of a compound that is named as a salt.

How the values were obtained:
[1] = system: stationary phase S. aureus; experiment: Bactericidal activity against stationary phase S. aureus (CFU counts); assay type: cell-based, Staphylococcus aureus; details: for log reduction at 6.25 µg/mL / log reduction at 12.5 µg/mL / log reduction at 25 µg/mL: Staphylococcus aureus, read-out: Log Kill
Description: Staphylococcus aureus (Oxford strain); Gram positive; Reference strain.
(§1) Bacteria were grown in 10 ml of nutrient broth (No. 2 (Oxoid)) overnight at 37° C., with continuous shaking at 120 rpm. The overnight cultures were diluted (1000×) in 100 ml of growth medium and then incubated without shaking for 10 days. Viability of the bacteria was estimated by colony forming unit (CFU) counts at 2 hour intervals at the first 24 hours and at 12-24 hours afterwards. From serial 10-fold dilutions of the experimental cultures, 100 μl samples were added to triplicate plates of nutrient agar plates (Oxoid) and blood agar plates (Oxoid). Colony forming units (CFU) were counted after incubation of the plates at 37° C. for 24 hours.
(§2) Cultures incubated for more than 24 hours are in the stationary phase. For drug screening, 5-6 day old stationary phase cultures were used.
(§3) Different concentrations of each test compound were incubated with stationary phase cultures (5-6 day cultures) in 96 well plates for 24 or 48 hours. Bactericidal activity was then determined by taking CFU counts of the resulting cultures, as described above.

stationary phase E. coli = experiment: Bactericidal activity against stationary phase E. coli (CFU counts); assay type: cell-based, Escherichia coli; details: Escherichia coli, read-out: Log kill
Description: (§4) Escherichia coli K12; Gram negative; Reference strain.
as §1, §2, §3

log phase E. coli [2] = experiment: MIC against log phase E. coli; assay type: cell-based, Escherichia coli
Description: as §4
(§5) The above-described overnight cultures were diluted (1000×) with iso-sensitest broth. The cultures were then incubated at 37° C. with shaking for 1-2 hours to reach log CFU 6, which served as log phase cultures.
(§6) The bactericidal activity of the drugs against log phase cultures were determined by minimal inhibitory concentration (MIC) of the drugs, which is defined as the lowest concentration which inhibits visible growth. Different concentrations of each test compound were incubated with the log-phase cultures in 96 well plates for 24 hours. Bactericidal activity was then examined by taking a spectrophotometer reading (using a plate reader) at 405 nm.

log phase E. coli [3] = experiment: Chequerboard analysis with polymyxin E against log phase E. coli; assay type: cell-based, Escherichia coli; details: for MIC: Escherichia coli
Description: as §4, §5, §6

persistent E. coli = experiment: Bactericidal activity against persistent E. coli selected by gentamicin; assay type: cell-based, Escherichia coli
Description: as §4
An antibiotic (gentamicin) was added to 5-6 day stationary-phase cultures to the final concentration of 50 to 100 μg/ml for 24 hours. After 24 hours of antibiotic treatment, the cells are washed 3 times with phosphate buffered saline (PBS), and then resuspended in PBS. The surviving bacterial cells are used as persisters. Viability is estimated by CFU counts. The persisters were then used in measurements of bactericidal activity for test compounds.
Different concentrations of each test compound were incubated with the (persister) cell suspension in 96 well plates for various periods of time (24 and 48 hours). Bactericidal activity was then determined by taking CFU counts of the resulting cultures, as described above.

[4] = Escherichia coli, read-out: MIC

Oc1ccc(O)cc1 [Hydroquinone]
log reduction at 6.25 µg/mL ([1]; 6.25 μg/ml): 6.15 | log reduction at 12.5 µg/mL ([1]; 12.5 μg/ml): 6.15 | log reduction at 25 µg/mL ([1]; 25 μg/ml): 6.15 | log reduction at 6.25 µg/mL (stationary phase E. coli; 6.25 μg/ml): 6.14 | log reduction at 12.5 µg/mL (stationary phase E. coli; 12.50 μg/ml): 6.14 | log reduction at 25 µg/mL (stationary phase E. coli; 25.00 μg/ml): 6.14 | MIC (log phase E. coli [2]; [4]): > 50 µg/mL

CC(COc1ccccc1)N(CCCl)Cc1ccccc1 (stereo not shown) [HT00800157, Phenoxybenzamine Hydrochloride]
MIC (log phase E. coli [3]; alone): > 64 µg/mL | MIC (log phase E. coli [3]; in combination with polymyxin E at 0.06 μg/ml): 64 µg/mL | MIC (log phase E. coli [3]; in combination with polymyxin E at 0.25 μg/ml): 1 µg/mL | spectrophotometer reading (log phase E. coli [3]; HT00800157 1 μg/ml alone): 1.52 | spectrophotometer reading (log phase E. coli [3]; HT00800157 2 μg/ml alone): 1.53 | spectrophotometer reading (log phase E. coli [3]; HT00800157 4 μg/ml alone): 1.60 | spectrophotometer reading (log phase E. coli [3]; HT00800157 8 μg/ml alone): 1.56 | spectrophotometer reading (log phase E. coli [3]; HT00800157 16 μg/ml alone): 1.56 | spectrophotometer reading (log phase E. coli [3]; HT00800157 32 μg/ml alone): 1.57 | spectrophotometer reading (log phase E. coli [3]; HT00800157 64 μg/ml alone): 1.60

Clc1ccc(C(Cn2ccnc2)OCc2ccsc2Cl)c(Cl)c1 (stereo not shown) [Tioconazole]
log reduction at 6.25 µg/mL ([1]; 6.25 μg/ml): 0 | log reduction at 12.5 µg/mL ([1]; 12.5 μg/ml): 6.15 | log reduction at 25 µg/mL ([1]; 25 μg/ml): 6.15

Bithionate sodium
Log Kill ([1]; 6.25 μg/ml): 0.01 | Log Kill ([1]; 12.5 μg/ml): 6.15 | Log Kill ([1]; 25 μg/ml): 6.15 | MIC (log phase E. coli [2]): 5 µg/mL | Log Kill (persistent E. coli; 6.25 μg/ml): 0.01 | Log Kill (persistent E. coli; 12.5 μg/ml): 0.03 | Log Kill (persistent E. coli; 25 μg/ml): 6.21

CN(C)CCOc1ccc(/C(=C(/CCCl)c2ccccc2)c2ccccc2)cc1 [Toremifene citrate]
log reduction at 6.25 µg/mL ([1]; 6.25 μg/ml): 6.15 | log reduction at 12.5 µg/mL ([1]; 12.5 μg/ml): 6.15 | log reduction at 25 µg/mL ([1]; 25 μg/ml): 6.15

COC(=O)C1=C(C)NC(C)=C(C(=O)OCC(C)C)C1c1ccccc1[N+](=O)[O-] (stereo not shown) [Nisoldipine]
log reduction at 6.25 µg/mL ([1]; 6.25 μg/ml): 0 | log reduction at 12.5 µg/mL ([1]; 12.5 μg/ml): 6.15 | log reduction at 25 µg/mL ([1]; 25 μg/ml): 6.15 | MIC (log phase E. coli [2]; [4]): > 50 µg/mL
